biological target: Substance-P receptor (Homo sapiens, UniProt P25103); experiment: Antagonist at human NK1 receptor expressed in recombinant BacMam virus infected human U2OS cells assessed as inhibition of substance P-induced intracellular calcium release preincubated for 30 mins followed by substance P addition by Fluo-4 calcium dye-based FLIPR assay; assay type: functional, cell-based; conditions: not given
Sequence (P25103 whole entry): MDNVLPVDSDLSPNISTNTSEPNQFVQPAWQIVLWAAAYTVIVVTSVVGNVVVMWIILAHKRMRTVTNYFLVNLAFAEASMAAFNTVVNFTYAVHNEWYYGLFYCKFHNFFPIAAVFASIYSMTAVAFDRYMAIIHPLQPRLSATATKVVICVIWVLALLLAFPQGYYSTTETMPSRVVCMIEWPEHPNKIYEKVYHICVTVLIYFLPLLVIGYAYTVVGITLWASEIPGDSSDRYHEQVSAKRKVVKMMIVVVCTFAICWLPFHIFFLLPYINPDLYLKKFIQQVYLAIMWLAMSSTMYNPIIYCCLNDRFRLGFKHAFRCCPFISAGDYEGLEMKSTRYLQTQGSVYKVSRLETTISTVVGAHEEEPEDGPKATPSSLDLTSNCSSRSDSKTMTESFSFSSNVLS

| SMILES | Ki [nM] |
| --- | --- |
| Cc1cc(F)ccc1[C@H]1C[C@]2(CC[C@H](C(N)=O)N2)CCN1C(=O)N(C)[C@H](C)c1cc(C(F)(F)F)cc(C(F)(F)F)c1 | < 1 |
| Cc1cc(F)ccc1[C@H]1C[C@@]2(CCN1C(=O)N(C)[C@H](C)c1cc(C(F)(F)F)cc(C(F)(F)F)c1)CC(C(=O)O)CN2 (stereo not given in full) | < 1 |
| Cc1cc(F)ccc1[C@H]1C[C@]2(CC[C@@H](C(N)=O)N2)CCN1C(=O)N(C)Cc1cc(C(F)(F)F)cc(C(F)(F)F)c1 | < 1 |
| Cc1cc(F)ccc1[C@H]1C[C@]2(CC[C@H](C(N)=O)N2)CCN1C(=O)N(C)[C@@H](C)c1cc(C(F)(F)F)cc(C(F)(F)F)c1 | < 1 |
| Cc1cc(F)ccc1[C@H]1C[C@@]2(CCN1C(=O)N(C)[C@H](C)c1cc(C(F)(F)F)cc(C(F)(F)F)c1)NCC[C@@H]2C(=O)O | < 1 |
| Cc1cc(F)ccc1[C@H]1C[C@]2(CCCN2)CCN1C(=O)N(C)[C@H](C)c1cc(C(F)(F)F)cc(C(F)(F)F)c1 | < 1 |
| Cc1cc(F)ccc1[C@H]1C[C@]2(CC[C@@H](C(N)=O)N2)CCN1C(=O)N(C)[C@H](C)c1cc(C(F)(F)F)cc(C(F)(F)F)c1 | < 1 |
| Cc1cc(F)ccc1[C@H]1C[C@]2(CC[C@@H](C(N)=O)N2)CCN1C(=O)N(C)[C@@H](C)c1cc(C(F)(F)F)cc(C(F)(F)F)c1 | < 1 |
| Cc1cc(F)ccc1[C@H]1C[C@]2(CC[C@H](C(N)=O)N2)CCN1C(=O)N(C)Cc1cc(C(F)(F)F)cc(C(F)(F)F)c1 | < 1 |

same assay, conditions: u2os

| SMILES | pKi |
| --- | --- |
| Cc1cc(F)ccc1[C@H]1C[C@@]2(CCC(C(N)=O)N2)CCN1C(=O)N(C)[C@H](C)c1cc(C(F)(F)F)cc(C(F)(F)F)c1 (stereo not given in full) | > 9 |

From ChEMBL document CHEMBL3880415, “Spiro (Piperidine-4,2''-Pyrrolidine)-1-(3,5-Trifluoromethyl Phenyl) Methylcarboxamides As NK1 Tachikynin Receptor Antagonists” (2011)
